Values of other authors in publication PMC8155022 (Scientific Reports, 2021).

Assays:
[1] = test system: activated CCR6+ T cells from human peripheral blood; set-up: method as in PMID 27905482; conditions: cited from earlier work
[2] = test system: patients with moderate to severe plaque psoriasis; set-up: method as in earlier work; conditions: 4 weeks of treatment, cited from earlier work

| Compound | IL-10 production [1] | IL-17A production [1] | reduction of IL-17A and IL-17F in patient serum [2] | efficacy in patients with moderate to severe plaque psoriasis ([2]; Phase 2a) |
| --- | --- | --- | --- | --- |
| COc1nc2ccc([C@@](O)(c3ccc(C)nc3C)c3cnnn3C)cc2c(Cl)c1Cc1ccc(C(F)(F)F)cc1 [JNJ-54271074] | slightly increased | greatly reducing |  |  |
| CCS(=O)(=O)c1ccc(CNC(=O)c2cnc3c(c2)CN(C[C@H]2CC[C@H](C(F)(F)F)CC2)[C@H]3C(C)C)nc1 [VTP-43742] |  |  | up to 75% | showed efficacy |
